Values of other authors as cited in article PMC3975045 (ACS medicinal chemistry letters, 2013).

Tested on: OX1 and OX2

In the case of [Ala^11,D-Leu^15]orexin B, the “selectivity for OX2 over OX1” value is given as 400 fold.
